Source: US6552079B2, “Integrin antagonists” (Eli Lilly and Company, priority 1996, dated 2003)

Assays:
[1] = target: T1, vitronectin receptor, αvβ3 (Homo sapiens, UniProt P05106+P06756); assay: αvβ3 ELISA purified integrin binding assay (vitronectin binding); conditions: inhibition of biotinylated vitronectin binding to immobilized purified αvβ3
T1 construct: After purification, the receptors were each stored in 0.1% Triton X-100 at 0.1-1.0 mg/ml; from tissue
Method: (§1) In the following assays, GPIIb-IIIa and vitronectin receptor, αvβ3 were prepared in purified form, by methods described in Fitzgerald, L. A., et al., Anal Biochem (1985) 151: 169-177 and Smith, J. W., J. Biol Chem (1988) 263: 18726-18731 (the disclosure of which is incorporated herein by reference). GPIIb-IIIa or vitronectin receptor, αvβ3, are coated onto microtiter plates. The coated support is then contacted with fibrinogen for the GPIIb-IIIa assay, or is contacted with vitronectin for the vitronectin receptor, αvβ3 and with test materials and incubated for sufficient time to reach maximal ligand binding to immobilized integrins. The adhesive ligands fibrinogen or vitronectin were typically provided at a concentration of 2-50 nM and the test material can, if desired, be added at a series of diultions. […]
(§2) The corresponding ligands (fibrinogen, von Willebrand Factor, or vitronectin) were conjugated to biotin using commercially available reagents and standard protocols. […] After incubation, the wells were aspirated to dryness and bound ligand containing biotin label was quantitated.
(§3) The bound protein was detected by the addition of anti-biotin antibody conjugated to alkaline phosphatase followed by addition of substrate (p-nitrophenyl […] phosphate), and determination of the optical density of each well at […].

[2] = system: ADP-induced aggregation of human platelets (PRP); assay: Platelet aggregation assay (Aggregation-Human/PRP/ADP); assay type: cell-based; conditions: human platelet rich plasma, ADP 20 μM
Method: In addition to the ELISA integrin binding assays described above, the Aggregation-Human/PRP/ADP Assay is useful for evaluating therapeutic compounds.
Platelet rich plasma (PRP) is prepared from healthy human volunteers for use in determining inhibition of platelet aggregation by compounds. Blood was collected via a 21 gauge butterfly cannula, using a two-syringe technique into 1/10 volume of […] trisodium citrate.
Platelet rich plasma was prepared at room temperature by centrifugation of the citrated whole blood at 100×g for 15 minutes. The PRP contained approximately 200-400,000 platelets/μl. Platelet poor plasma was prepared by centrifugation of citrated whole blood at 12,000×g for 2 minutes.
Platelet aggregation was assayed in a Chrono-log whole blood aggregometer (Chrono-log Corporation, Havertown, Pa.) using the PRP prepared above according to the manufacturers directions. Inhibition of platelet aggregation was studied by adding varying amounts of test materials followed by adenosine diphosphate (ADP, 20 μM) to stirred human PRP. Specifically, the human PRP was incubated with the compound for 1-2 min. at 37° C. prior to addition of the aggregating agent ADP.

GPIIb-IIIa = target: T2, GPIIb-IIIa (Homo sapiens, UniProt P05106+P08514); assay: GPIIb-IIIa ELISA purified integrin binding assay (fibrinogen binding); conditions: inhibition of biotinylated fibrinogen binding to immobilized purified platelet GPIIb-IIIa; read-out: GPIIbIIIa ELISA (IC50 μM)
T2 construct: Purified platelet GPIIb-IIIa was prepared by Fitzgerald, L. A., et al; from tissue; host or cells: platelets
Method: as §1, §2, §3

T2 sequence (P08514 32-887 limits assumed): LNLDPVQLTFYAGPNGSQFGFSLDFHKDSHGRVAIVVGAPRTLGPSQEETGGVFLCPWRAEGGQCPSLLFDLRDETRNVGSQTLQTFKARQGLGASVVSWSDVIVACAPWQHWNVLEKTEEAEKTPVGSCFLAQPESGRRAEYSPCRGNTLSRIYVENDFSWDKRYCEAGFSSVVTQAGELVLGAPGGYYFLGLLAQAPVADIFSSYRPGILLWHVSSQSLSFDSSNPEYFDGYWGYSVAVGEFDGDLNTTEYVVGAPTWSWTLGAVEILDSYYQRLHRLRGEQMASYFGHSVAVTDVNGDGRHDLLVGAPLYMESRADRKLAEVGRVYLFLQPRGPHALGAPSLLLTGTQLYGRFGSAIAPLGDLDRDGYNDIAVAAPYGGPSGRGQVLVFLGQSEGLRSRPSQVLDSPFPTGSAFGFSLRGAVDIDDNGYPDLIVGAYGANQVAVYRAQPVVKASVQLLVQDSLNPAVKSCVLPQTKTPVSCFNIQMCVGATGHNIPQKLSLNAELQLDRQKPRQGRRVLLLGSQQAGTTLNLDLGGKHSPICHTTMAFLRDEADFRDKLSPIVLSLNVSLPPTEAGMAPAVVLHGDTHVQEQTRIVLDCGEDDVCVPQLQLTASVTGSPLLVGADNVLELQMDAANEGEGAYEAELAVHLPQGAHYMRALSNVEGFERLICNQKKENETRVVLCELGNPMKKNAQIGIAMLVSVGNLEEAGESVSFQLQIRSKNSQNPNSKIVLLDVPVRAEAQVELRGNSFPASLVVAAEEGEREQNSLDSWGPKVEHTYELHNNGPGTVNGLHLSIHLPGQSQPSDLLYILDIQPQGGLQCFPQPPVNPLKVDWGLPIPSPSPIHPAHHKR
T2 sequence (P08514 891-1039 partner limits assumed): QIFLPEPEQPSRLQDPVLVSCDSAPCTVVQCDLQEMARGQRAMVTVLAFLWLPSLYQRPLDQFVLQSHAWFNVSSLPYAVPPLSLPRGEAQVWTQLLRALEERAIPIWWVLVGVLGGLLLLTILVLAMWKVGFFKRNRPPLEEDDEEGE
T2 sequence (P05106 27-788): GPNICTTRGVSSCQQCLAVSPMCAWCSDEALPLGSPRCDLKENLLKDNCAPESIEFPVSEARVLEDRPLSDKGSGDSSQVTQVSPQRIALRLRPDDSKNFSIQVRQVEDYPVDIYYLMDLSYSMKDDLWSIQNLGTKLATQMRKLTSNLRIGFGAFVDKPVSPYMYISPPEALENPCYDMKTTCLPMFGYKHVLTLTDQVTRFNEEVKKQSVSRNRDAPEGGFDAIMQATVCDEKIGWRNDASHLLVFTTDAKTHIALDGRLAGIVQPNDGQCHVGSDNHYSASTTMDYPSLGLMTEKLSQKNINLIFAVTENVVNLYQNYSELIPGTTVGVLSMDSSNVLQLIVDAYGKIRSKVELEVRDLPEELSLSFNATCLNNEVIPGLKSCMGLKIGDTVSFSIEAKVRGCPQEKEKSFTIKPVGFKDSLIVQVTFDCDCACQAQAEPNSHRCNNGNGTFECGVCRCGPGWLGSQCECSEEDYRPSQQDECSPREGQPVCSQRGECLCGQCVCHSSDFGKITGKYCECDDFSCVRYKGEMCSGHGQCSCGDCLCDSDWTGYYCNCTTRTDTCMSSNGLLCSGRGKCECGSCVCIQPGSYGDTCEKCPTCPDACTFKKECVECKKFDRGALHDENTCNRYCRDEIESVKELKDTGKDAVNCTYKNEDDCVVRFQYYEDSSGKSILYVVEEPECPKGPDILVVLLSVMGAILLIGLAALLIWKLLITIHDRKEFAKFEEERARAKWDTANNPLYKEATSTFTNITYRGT
T1 sequence (P06756 31-889 limits assumed): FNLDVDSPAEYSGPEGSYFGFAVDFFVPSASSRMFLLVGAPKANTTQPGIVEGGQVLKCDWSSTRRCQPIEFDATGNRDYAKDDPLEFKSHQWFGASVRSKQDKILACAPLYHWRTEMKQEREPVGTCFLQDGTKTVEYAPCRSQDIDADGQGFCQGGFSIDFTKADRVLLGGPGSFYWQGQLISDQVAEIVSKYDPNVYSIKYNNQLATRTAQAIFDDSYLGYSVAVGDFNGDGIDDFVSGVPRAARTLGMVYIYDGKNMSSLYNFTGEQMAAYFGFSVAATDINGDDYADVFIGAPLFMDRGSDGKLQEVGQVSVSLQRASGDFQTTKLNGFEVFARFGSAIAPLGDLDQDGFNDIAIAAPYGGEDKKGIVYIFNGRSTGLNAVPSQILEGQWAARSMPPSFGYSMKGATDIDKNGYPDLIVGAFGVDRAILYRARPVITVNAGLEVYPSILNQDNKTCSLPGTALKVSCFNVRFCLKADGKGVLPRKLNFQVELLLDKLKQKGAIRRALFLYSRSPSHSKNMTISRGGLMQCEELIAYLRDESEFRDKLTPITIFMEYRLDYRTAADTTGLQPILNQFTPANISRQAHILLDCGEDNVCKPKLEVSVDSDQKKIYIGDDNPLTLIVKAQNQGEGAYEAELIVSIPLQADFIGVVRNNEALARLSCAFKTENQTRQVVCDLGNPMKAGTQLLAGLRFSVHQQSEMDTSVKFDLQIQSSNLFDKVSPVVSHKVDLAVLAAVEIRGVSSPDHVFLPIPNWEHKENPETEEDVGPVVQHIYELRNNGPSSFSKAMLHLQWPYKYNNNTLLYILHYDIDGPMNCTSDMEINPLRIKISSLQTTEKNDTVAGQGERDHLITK
T1 sequence (P06756 891-1048 partner limits assumed): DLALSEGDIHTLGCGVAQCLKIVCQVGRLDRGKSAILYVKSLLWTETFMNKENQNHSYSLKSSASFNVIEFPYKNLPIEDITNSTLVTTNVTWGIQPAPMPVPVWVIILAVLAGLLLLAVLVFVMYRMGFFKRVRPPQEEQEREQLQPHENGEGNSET
T1 sequence (P05106 27-788): as the sequence (P05106 27-788) above

For `O=C(CNC(=O)C1CCNCC1)NCC(NS(=O)(=O)c1ccccc1)C(=O)O` (stereo not drawn) [Compound 16], the IC50 [1] was over 100 µM, the IC50 [2] was 49.3 µM and the IC50 (GPIIb-IIIa) was 5 µM.
